One molecule from ChEMBL document CHEMBL1144167, “Development and biological evaluation of C(60) fulleropyrrolidine-thalidomide dyad as a new anti-inflammation agent” (2008) can be followed below.

Active and inactive are the calls of the source. No cut-off for these calls is given here.

Experiment [1] deals with RAW264.7. The experiment is described as follows: Antiinflammatory activity in mouse RAW264.7 cells assessed as inhibition of LPS-induced TNFalpha synthesis at 10 uM pretreated for 3 hrs before LPS challenge assessed after 24 hrs by ELISA relative to control. On the set-up: scale not given: the % may be the effect or the level left. Type of experiment: functional. Background: In an ELISA, binding on a coated surface is turned into a signal by an enzyme label.

The test system of experiment [2] is RAW264.7. The experiment is described as follows: Antiinflammatory activity in mouse LPS-activated RAW264.7 cells assessed as mean fluorescent intensity of ROS scavenging activity at 10 uM pretreated for 3 hrs before LPS challenge by FACS. The experiment is classed as functional. (In general: A flow cytometer gives signals particle by particle.)
Experiment [3] has as its system RAW264.7. The experiment is described as follows: Antiinflammatory activity in mouse LPS-activated RAW264.7 cells assessed as ROS scavenging activity at 10 uM pretreated for 3 hrs before LPS challenge measured by decrease in fluorescent intensity by confocal microscopy. The experiment is classed as functional, cell-based.
In experiment [4] the test system is RAW264.7. The experiment is described as follows: Reduction in iNOS expression in LPS-activated mouse RAW264.7 cells at 1 uM pretreated for 3 hrs before LPS challenge assessed after 24 hrs by Western blot. The experiment is classed as functional, cell-based. On the technique in general: Immunoblotting shows a protein as a band on a membrane.
Experiment [5] has as its system RAW264.7. The experiment is described as follows: Reduction in iNOS expression in LPS-activated mouse RAW264.7 cells at 10 uM pretreated for 3 hrs before LPS challenge assessed after 24 hrs by Western blot. The experiment is classed as functional, cell-based.
For experiment [6], the system named is RAW264.7. The experiment is described as follows: Reduction in pERK1/2 expression in LPS-activated mouse RAW264.7 cells at 10 uM pretreated for 3 hrs before LPS challenge assessed after 24 hrs by Western blot. Type of experiment: functional, cell-based.
The subject of experiment [7] is RAW264.7. The experiment is described as follows: Antiinflammatory activity in mouse RAW264.7 cells assessed as inhibition of LPS-induced nitric oxide production pretreated for 3 hrs before LPS challenge assessed after 24 hrs by griess assay. The experiment is classed as functional, cell-based.
Experiment [8] deals with RAW264.7. The experiment is described as follows: Antiinflammatory activity in mouse RAW264.7 cells assessed as inhibition of LPS-induced nitric oxide production at 10 uM pretreated for 3 hrs before LPS challenge assessed after 24 hrs by griess assay relative to control. The experiment is classed as functional. More on the design: scale not given: the % may be the effect or the level left.

Consider `O=C1CCC(N2C(=O)c3ccccc3C2=O)C(=O)N1` (stereo not drawn) [THALIDOMIDE], for which the figures for the Activity in experiment [1], in experiment [7] and in experiment [8] were 55.5%, “Dose-dependent effect” and 44.1%, respectively. Besides, the Flu intensity in experiment [2] was 468.37. In addition, the outcome in experiment [3], in experiment [4], in experiment [5] and in experiment [6] was Active.
